Reference: patent publication US11419953B2, “Reduced metastable complex macrocyclic contrast agents” (INVENTURE, LLC, priority 2020, dated 2022)

How the values were obtained:
[1] = Free Gd3+ release in vitro, comparative data (Example 6); type: physicochemical; conditions: after 30 minutes at standard dosing
[2] = cited from earlier work
[3] = commercial product stored in bottle; cited from earlier work

SMILES	In Vitro PPM (free GAD released) [1]	stability lower at pH 7.4 than for the fully deprotonated complex [2]	in-bottle measured free gadolinium [3]
CNC[C@H](O)[C@@H](O)[C@H](O)[C@H](O)CO.O=C([O-])CN1CCN(CC(=O)[O-])CCN(CC(=O)O)CCN(CC(=O)[O-])CC1.[Gd+3] [DOTAREM, gadoterate meglumine]	1,204 +/− 3.9 PPM	–	–
O=C([O-])CN1CCN(CC(=O)[O-])CCN(CC(=O)[O-])CCN(CC(=O)[O-])CC1.[Gd+3] [Gd-DOTA]	–	7 orders of magnitude	10^13 Gd3+ ions in 100 ml of GCA product
